Tests used:
[1] = rat, in vivo
[2] = rat, in vivo; remark: listed apart in the source

Question: For `C[n+]1ccccc1/C=N/O` [2-PAMCl, 2-pralidoxime chloride], which “duration of therapeutic plasma drug level (4.0 μg/ml plasma)” value [1] is on record?
Answer: 21/4

Question: And the “time until blood concentration drops below therapeutic level (TL)” value [1]?
Answer: 2 to 3 h

Question: What about the “death of all animals, time after injection” value [2] of the same compound?
Answer: ≤ 30 min

Source: patent US5186941A (priority 1991, dated 1993)
